# Source: publication PMC6136712, “Ex vivo drug sensitivity testing as a means for drug repurposing in esophageal adenocarcinoma” (PLoS ONE, 2018)
# Where a name gives a salt, the structure may show the parent alone.
# Key:
# Assay type in all cases: cell-based, human
# [1] = tested on: normal esophageal epithelium cell line EACN42; assay: FDA library drug sensitivity testing (CellTiter-Glo, 72 h), normal control cells; design: key to DSS: modified drug sensitivity score (DSSmod) from dose-response curve fit
# How it was run: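 HPV E6-E7-immortalized normal human esophageal epithelial cells, 1000 per well, exposed 72 h at 37 °C to drugs in duplicate from 10μM top concentration across a 20,000-fold range. Viability by ATP bioluminescence; DMSO wells as negative control; curves scored with modified drug sensitivity score (DSSmod).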
# OE33 cells = assay: FDA library drug sensitivity testing (CellTiter-Glo, 72 h); settings: OE33; sDSSmod = DSSmod (patient cells) - DSSmod (normal cells)
# From the text: (§1) OE33, OE19 and SKGT2 human esophageal adenocarcinoma cell lines were obtained from the European Collection of Cell Culture ([…]). Flo1, EAC42 and EAC47 cells were established in the Capobianco Laboratory. EAC42 and EAC47 human esophageal adenocarcinoma cell lines are derived from patients undergoing surgery at the Miller School of Medicine, University of Miami. The Capobianco laboratory obtained written informed consent from all patients and approval from the Institutional Research Ethics Committee.
# (§2) Drug sensitivity testing (DST) was performed as described previously. […] Individual drugs were dissolved in 100% DMSO and tested in duplicates starting at a maximal test concentration of 10μM then over a 20,000-fold concentration range to generate dose response curves. Wells with assay buffer containing DMSO served as negative controls. 1000 exponentially growing cells were seeded per well in 384-well micro-titer plates and incubated in the presence of compounds in a humidified environment at 37°C and 5% CO2. After 72 hours of treatment, cell viability was assessed by measuring ATP levels via bioluminescence (CellTiter-Glo, Promega) according to manufactures recommendations. Interpretation of curve parameters was performed according to the modified drug sensitivity scoring (DSSmod) function developed by Swords et al. […] Given in this way, the sDSSmod incorporated information on each drug’s potency, efficacy, effect range and therapeutic index, making it possible to prioritize compounds over multiple parameters using a single numerical metric. […] All calculations and scoring routines are implemented in MatLab and additional curve fitting and statistical analyses are performed in GraphPad prism.
# Flo-1 cells = assay: as above; settings: Flo-1; sDSSmod = DSSmod (patient cells) - DSSmod (normal cells)
# From the text: as §1
# Drug sensitivity testing (DST) was performed as described previously. […] Individual drugs were dissolved in 100% DMSO and tested in duplicates starting at a maximal test concentration of 10μM then over a 20,000-fold concentration range to generate dose response curves. Wells with assay buffer containing DMSO served as negative controls. 1000 exponentially growing cells were seeded per well in 384-well micro-titer plates and incubated in the presence of compounds in a humidified environment at 37°C and 5% CO2. After 72 hours of treatment, cell viability was assessed by measuring ATP levels via bioluminescence (CellTiter-Glo, Promega) according to manufactures recommendations. Interpretation of curve parameters was performed according to the modified drug sensitivity scoring (DSSmod) function developed by Swords et al. As a final step, the selective DSSmod (sDSSmod) for each drug in each patient screen is calculated according to the formula sDSSmod = DSSmod (patient cells)—DSSmod (normal cells). Given in this way, the sDSSmod incorporated information on each drug’s potency, efficacy, effect range and therapeutic index, making it possible to prioritize compounds over multiple parameters using a single numerical metric. In addition, this methodology allows us to rank compounds by cancer-selective efficacy for each individual patient. […] All calculations and scoring routines are implemented in MatLab and additional curve fitting and statistical analyses are performed in GraphPad prism.
# EAC42 cells = assay: as above; settings: EAC42; sDSSmod = DSSmod (patient cells) - DSSmod (normal cells)
# From the text: as §1, §2
# EAC47 cells = assay: as above; settings: EAC47; sDSSmod = DSSmod (patient cells) - DSSmod (normal cells)
# From the text: as §1, §2
# OE19 cells = assay: as above; settings: sDSSmod = DSSmod (patient cells) - DSSmod (normal cells)
# From the text: as §1, §2
# SK-GT2 cells = assay: as above; settings: SK-GT2; sDSSmod = DSSmod (patient cells) - DSSmod (normal cells)
# From the text: as §1, §2
# [2] = Homo sapiens, 72 h, EACN42 normal esophageal cells, cell viability (ATP), max test concentration 10μM
# [3] = drug sensitivity score, EACN42 normal esophageal cells, 72 h
# [4] = EACN42 normal esophageal cells, 72 h, cell viability (ATP), max test concentration 10μM
# [5] = Homo sapiens; EACN42 normal esophageal cells, 72 h, cell viability (ATP), max test concentration 10μM
Compound,"EC50 [1, 2]","DSS [1, 3]",sDSSmod (OE33 cells),sDSSmod (Flo-1 cells),sDSSmod (EAC42 cells),sDSSmod (EAC47 cells),sDSSmod (OE19 cells),sDSSmod (SK-GT2 cells),"EC50 [1, 4]","EC50 [1, 5]"
COc1cc([C@@H]2c3cc4c(cc3[C@@H](O[C@@H]3O[C@@H]5CO[C@@H](c6cccs6)O[C@H]5[C@H](O)[C@H]3O)[C@H]3COC(=O)[C@H]23)OCO4)cc(OC)c1O [Teniposide],5170 nM,6.79,39.45,10.22,,,,,,
Nc1nc(Cl)nc2c1ncn2[C@@H]1O[C@H](CO)[C@@H](O)[C@@H]1F [Clofarabine],70 nM,19.89,16.0076,,-8.024,-10.1317,-19.554,-9.559,,
CCc1c2c(nc3ccc(OC(=O)N4CCC(N5CCCCC5)CC4)cc13)-c1cc3c(c(=O)n1C2)COC(=O)[C@]3(O)CC.Cl.O.O.O [Irinotecan HCl Trihydrate],,13.38,12.07,,-6.563,-6.3823,-12.0524,-7.5553,1570 nM,
CCC(C)(C)C(=O)O[C@H]1C[C@@H](C)C=C2C=C[C@H](C)[C@H](CC[C@@H]3C[C@@H](O)CC(=O)O3)[C@H]21 [Simvastatin],3350 nM,5.66,26.15,,-5.363,-5.66,-5.647,-5.66,,
Cc1ccc(C(=O)Nc2ccc(CN3CCN(C)CC3)c(C(F)(F)F)c2)cc1C#Cc1cnc2cccnn12 [Ponatinib],,11.77,-6.155,,-11.7731,-11.7731,-11.756,-11.7711,,2810 nM
COc1c(C)c2c(c(O)c1C/C=C(\C)CCC(=O)OCCN1CCOCC1)C(=O)OC2 [Mycophenolate mofetil],2180 nM,2.66,11.03,5.44,6.417,,,,,
CC[C@]1(O)C[C@H]2CN(CCc3c([nH]c4ccccc34)[C@@](C(=O)OC)(c3cc4c(cc3OC)N(C=O)[C@H]3[C@@](O)(C(=O)OC)[C@H](OC(C)=O)[C@]5(CC)C=CCN6CC[C@]43[C@@H]65)C2)C1 [Vincristine],30 nM,,-8.234,6.31,-7.92,-16.3015,,-7.21,,
CC(=O)O[C@H]1C(=O)[C@@]2(C)[C@H]([C@H](OC(=O)c3ccccc3)[C@]3(O)C[C@H](OC(=O)[C@H](O)[C@@H](NC(=O)c4ccccc4)c4ccccc4)C(C)=C1C3(C)C)[C@]1(OC(C)=O)CO[C@@H]1C[C@@H]2O [Paclitaxel],10 nM,34.94,7.642,9.33,-12.1,-17.6632,,12.8,,
CCc1c2c(nc3ccc(OC(=O)N4CCC(N5CCCCC5)CC4)cc13)-c1cc3c(c(=O)n1C2)COC(=O)[C@]3(O)CC [Irinotecan],5110 nM,6.99,5.246,,,-5.5855,-6.34,-5.574,,
C/C=C(\C)C(=O)N[C@@H](c1ccccc1)[C@@H](O)C(=O)O[C@H]1C[C@@]2(O)[C@@H](OC(=O)c3ccccc3)[C@@H]3[C@]4(OC(C)=O)CO[C@@H]4C[C@H](O)[C@@]3(C)C(=O)[C@H](OC(C)=O)C(=C1C)C2(C)C [Cephalomannine],,23.35,5.452,12.79,-5.552,-8.868,,21.46,,162 nM
Cc1ccc(Nc2nccc(N(C)c3ccc4c(C)n(C)nc4c3)n2)cc1S(N)(=O)=O.Cl [Pazopanib HCl],,0.07,11.37,8.16,,,,,,
Nc1nc(F)nc2c1ncn2[C@@H]1O[C@H](CO)[C@@H](O)[C@@H]1O [Fludarabine],70 nM,42.19,-9.248,,-42.0707,-42.19,-20.7262,-12.4173,,
Nc1nc2[nH]cc(CCc3ccc(C(=O)N[C@@H](CCC(=O)O)C(=O)O)cc3)c2c(=O)[nH]1 [Pemetrexed],60 nM,16.15,25.32,,14.62,14.75,-15.3102,,,
COc1c(C)c2c(c(O)c1C/C=C(\C)CCC(=O)O)C(=O)OC2 [Mycophenolic],,2.17,16.23,10.92,8.479,5.9818,,,,
O=C1c2c(O)ccc(O)c2C(=O)c2c(NCCNCCO)ccc(NCCNCCO)c21 [Mitoxantrone Hydrochloride],1670 nM,17.16,9.033,17.0838,6.699,5.242,,,,
CC(=O)O[C@@]12CO[C@@H]1C[C@H](O)[C@@]1(C)C(=O)[C@H](O)C3=C(C)[C@@H](OC(=O)[C@H](O)[C@@H](NC(=O)OC(C)(C)C)c4ccccc4)C[C@@](O)([C@@H](OC(=O)c4ccccc4)[C@H]21)C3(C)C [Docetaxel],3000 nM,40.14,,8.04,-15.5932,-23.2183,,16.5247,,
Nc1ccn([C@@H]2O[C@H](CO)[C@@H](O)C2(F)F)c(=O)n1 [Gemzar],,16.2,11.79,,17.37,10.03,-11.949,,770 nM,
O=P(O)(O)C(O)(Cn1ccnc1)P(=O)(O)O [Zoledronic Acid],,0,,5.26,9.833,6.526,,,,
